From patent US4228274A, “1-Substituted glycopyranosides” (Merck & Co., Inc., priority 1978, dated 1980)
Several values for one entry are separate records, joined by “and”; a condition that tells them apart may be missing. Identical values can stand only once.

Columns and labels:
[1] = tested on: fat cells (isolated adipose cells); test: In Vitro Fat Cell Bioassay (insulin-like activity, conversion of glucose-1-14C to 14CO2); format: cell-based; conditions: for 14-CO2: average CPM, baseline not subtracted, repeat lines are separate runs
Procedure: It is known that fat cells incubated in Krebs-Ringer bicarbonate buffer containing glucose and albumin convert glucose-1-^14 C to ^14 CO2. […] This is the basis of the bioassay of insulin-like activity described in J. Gliemann, Diabetes, 14, 643(1965). The method for preparing the necessary isolated adipose cells retaining their metabolic activity is described in M. Rodbell, J. Biol. Chem., 239, 375(1964).
The compounds of the present invention have been bioassayed for their insulin-like activity essentially by the process set forth in Gliemann and Rodbell.
*All compounds were tested at 100 μg./ml.
**Insulin standard at 25 μu/ml.
1. An average CPM value is taken of each group.
2. The average value of Baseline (Buffer control) is subtracted from the
average of each of the remaining groups.
3. In order to obtain Relative Activity percentage, the average CPM value
for each compound (minus the average CPM value of the control group) is
divided by the average CPM value in the insulin standard (minus the
average CPM value of the controls), and the resultant value multiplied by
100 to obtain % activity.

[2] = tested on: fat cells (isolated adipose cells); conditions: fat cells in Krebs-Ringer bicarbonate buffer containing glucose and albumin; known from Gliemann; cited from earlier work
[3] = compounds tested at 100 μg./ml, baseline subtracted, relative to insulin standard 25 μu/ml = 100%

Molecule	14-CO2 ([1]; compounds tested at 100 μg./ml)	activity at 100 µg/mL [1, 3] [%]	Relative Activity % [1, 3] [%]	Relative Activity % ([1]; Insulin standard at 25 μu/ml, reference set to 100%) [%]	stimulation of 14CO2 production [2]
NCCCCCCO[C@H]1O[C@H](CO)[C@@H](O)[C@H](O)[C@@H]1O [1-(6-aminohexyl) α-D-mannopyranoside, 1-(6-aminohexyl)-α-D-mannopyranoside]	3330 cpm	28			
NCCCCCCS[C@@H]1O[C@H](CO)[C@@H](O)[C@H](O)[C@@H]1O [1-[(6-aminohexyl)thio]-1-deoxy-β-D-mannopyranoside]	4898 cpm and 5177 cpm	93	78		
NCCCCCCC(=O)N[C@@H]1O[C@H](CO)[C@@H](O)[C@H](O)[C@@H]1O [1-[(7-aminoheptanoyl)amino]-1-deoxy-β-D-mannopyranoside]	1952 cpm	26			
Insulin: Insulin standard at 25 μu/ml				100	stimulation of severalfold
